The record followed here is US7745476B2, “1,3,5-trisubstituted 4,5-dihydro-1H-pyrazole derivatives having CB1-antagonistic activity” (Solvay Pharmaceuticals B.V., priority 2004, dated 2010).

The target in one data set is human CB1 receptor (Homo sapiens, UniProt P21554). The data set can be described thus: In vitro cannabinoid-CB1 receptor antagonism (WIN 55,212-2-induced [3H]-arachidonic acid release in CHO cells). The format is cell-based. To be noted: 10^−6M. As to the method: In vitro CB1 receptor antagonism can be assessed with the human CB1 receptor cloned in Chinese hamster ovary (CHO) cells. CHO cells are grown in a Dulbecco's Modified Eagle's medium (DMEM) culture medium, supplemented with 10% heat-inactivated fetal calf serum. Medium is aspirated and replaced by DMEM, without fetal calf serum, but containing [^3H]-arachidonic acid and incubated overnight in a cell culture stove (5% CO2/95% air; 37° C.; water-saturated atmosphere). During this period [^3H]-arachidonic acid is incorporated in membrane phospholipids. On the test day, medium is aspirated and cells are washed three times using 0.5 ml DMEM, containing 0.2% bovine serum albumin (BSA). Stimulation of the CB1 receptor by WIN 55,212-2 leads to activation of PLA2 followed by release of [^3H]-arachidonic acid into the medium. This WIN 55,212-2-induced release is concentration-dependently antagonized by CB1 receptor antagonists.

The target in data set [1] is human cannabinoid CB1 receptor (Homo sapiens, UniProt P21554). Briefly: In vitro affinity for cannabinoid-CB1 receptors ([3H]CP-55,940 radioligand binding, CHO cell membranes). To be noted: read-out: In vitro affinity pKi value (converted). As to the method: The affinity of the compounds of the invention for cannabinoid CB1 receptors can be determined using membrane preparations of Chinese hamster ovary (CHO) cells in which the human cannabinoid CB1 receptor is stably transfected in conjunction with [^3H]CP-55,940 as radioligand. After incubation of a freshly prepared cell membrane preparation with the [^3H]-ligand, with or without addition of compounds of the invention, separation of bound and free ligand is performed by filtration over glassfiber filters. Radioactivity on the filter is measured by liquid scintillation counting.
human cannabinoid CB1 receptor, sequence (P21554 whole entry): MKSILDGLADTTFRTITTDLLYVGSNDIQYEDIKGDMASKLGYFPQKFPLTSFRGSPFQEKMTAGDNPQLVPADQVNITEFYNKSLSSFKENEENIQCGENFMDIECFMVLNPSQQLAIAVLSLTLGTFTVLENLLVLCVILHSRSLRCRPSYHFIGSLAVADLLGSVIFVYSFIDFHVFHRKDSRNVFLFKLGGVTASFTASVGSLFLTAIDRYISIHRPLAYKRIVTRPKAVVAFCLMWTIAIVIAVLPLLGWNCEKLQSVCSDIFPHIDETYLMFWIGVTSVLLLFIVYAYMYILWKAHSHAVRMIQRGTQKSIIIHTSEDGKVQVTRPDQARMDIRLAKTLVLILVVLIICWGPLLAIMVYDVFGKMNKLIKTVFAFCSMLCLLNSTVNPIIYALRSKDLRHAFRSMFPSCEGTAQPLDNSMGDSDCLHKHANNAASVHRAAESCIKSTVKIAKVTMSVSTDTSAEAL

human CB1 receptor, sequence (P21554 whole entry): as above

On to `N/C(=N\S(=O)(=O)c1ccc(F)cc1)C1=NN(c2ccc(Cl)cc2)C(c2ccccc2)C1` (stereo not shown) [Compound 5, N-[(4-fluorophenyl)sulfonyl]-1-(4-chlorophenyl)-5-phenyl-4,5-dihydro-(1H)-pyrazole-3-carboxamidine], for which the melting point (commonly the temperature, or range, at which the solid turns liquid) lay in the range of 200 to 203.5 °C.

Consider `CNC(=NS(=O)(=O)N1CCCCC1)C1=NN(c2ccc(Cl)cc2)C(c2ccccc2)C1` (stereo not shown) [Compound 10, N-[(piperidin-1-yl)sulfonyl]-N′-methyl-1-(4-chlorophenyl)-5-phenyl-4,5-dihydro-(1H)-pyrazole-3-carboxamidine], for which at 1 µM the inhibition against human CB1 receptor was 79%. Also, the Ki in data set [1] is 79.4 nM.

`N/C(=N\S(=O)(=O)c1ccc(F)cc1)C1=NN(c2ccc(Cl)cc2Cl)C(c2ccccc2)C1` (stereo not shown) [Compound 6, N-[(4-fluorophenyl)sulfonyl]-1-(2,4-dichlorophenyl)-5-phenyl-4,5-dihydro-(1H)-pyrazole-3-carboxamidine] came in with a melting point of 167 to 169.5 °C.

Turning to `CN/C(=N\S(=O)(=O)N1CCOCC1)C1=NN(c2ccc(Cl)cc2Cl)C(c2ccccc2)C1` (stereo not shown) [Compound 11, N-[(Morpholin-4-yl)sulfonyl]-N′-methyl-1-(2,4-dichlorophenyl)-5-phenyl-4,5-dihydro-(1H)-pyrazole-3-carboxamidine], the melting point was 161 to 165 °C.

Compound `O=C(NC1CCCCC1)C1=NN(c2ccc(Cl)cc2Cl)C(c2ccccc2)C1` (stereo not shown) showed a melting point of 160 to 163.5 °C.

Turning to `O=C(NN1CCCCC1)C1=NN(c2ccc(Cl)cc2)C(c2ccccc2)C1` (stereo not shown) [Compound 1, N-(piperidin-1-yl)-1-(4-chlorophenyl)-5-phenyl-4,5-dihydro-(1H)-pyrazole-3-carboxamide], the melting point lay within 189 to 192 °C.

Regarding `O=C(NN1CCCCC1)C1=NN(c2ccc(Cl)cc2Cl)C(c2ccccc2)C1` (stereo not shown) [Compound 3, N-(Piperidin-1-yl)-1-(2,4-dichlorophenyl)-5-phenyl-4,5-dihydro-(1H)-pyrazole-3-carboxamide], the melting point is 163 to 165 °C. Besides, on human CB1 receptor, the inhibition (commonly the drop in the measured response relative to a control, in per cent) at 1 µM turned out to be 98%. In data set [1], the Ki was 25.1 nM.
